Results taken from ChEMBL document CHEMBL1131240, “Novel benzothiazolin-2-one and benzoxazin-3-one arylpiperazine derivatives with mixed 5HT1A/D2 affinity as potential atypical antipsychotics” (J Med Chem, 1998).

Key:
Mus musculus [1] = test: Tail suspension test in mice, dose(mg/Kg ip) = 4;duration of immobility(% vs controls); format: functional
Mus musculus [2] = test: Compound was evaluated in vivo antagonism of mescaline-induced scratching(% vs controls), dose(mg/Kg ip)=4; format: functional
[3] = target: 5-hydroxytryptamine receptor 2A (Bos taurus, UniProt Q75Z89); test: Affinity towards 5-hydroxytryptamine 2A receptor in membranes from bovine frontal cortex using [3H]ketanserin; format: tissue-based
[4] = target: 5-hydroxytryptamine receptor 1B (Rattus norvegicus, UniProt P28564); test: Affinity towards 5-hydroxytryptamine 1B receptor in membranes from rat frontal cortex using [3H]5-HT; format: tissue-based
[5] = target: T1, Alpha-1A adrenergic receptor (Bos taurus, UniProt P18130); test: Affinity towards Alpha-1A adrenergic receptor in membranes from bovine frontal cortex using [3H]prazosin; format: tissue-based
T1 sequence (P18130 whole entry): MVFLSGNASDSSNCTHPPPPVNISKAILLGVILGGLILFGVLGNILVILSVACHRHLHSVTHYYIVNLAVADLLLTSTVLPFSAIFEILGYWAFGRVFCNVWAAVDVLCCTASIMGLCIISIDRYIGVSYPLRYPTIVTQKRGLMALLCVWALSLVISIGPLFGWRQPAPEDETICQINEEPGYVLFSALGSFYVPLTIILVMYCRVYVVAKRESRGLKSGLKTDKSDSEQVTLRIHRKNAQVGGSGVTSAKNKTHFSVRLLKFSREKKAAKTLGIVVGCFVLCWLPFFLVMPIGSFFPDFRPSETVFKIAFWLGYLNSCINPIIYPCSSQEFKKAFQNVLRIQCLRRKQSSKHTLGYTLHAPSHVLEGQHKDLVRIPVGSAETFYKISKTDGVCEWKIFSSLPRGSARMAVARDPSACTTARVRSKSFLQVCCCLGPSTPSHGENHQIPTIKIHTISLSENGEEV

Rattus norvegicus [6] = test: Antagonism of SKF 10047 -induced hypermotility (% vs controls) dose(mg/Kg po) = 8; format: functional
Rattus norvegicus [7] = test: Antagonism of PCP-induced stereotypies (%vs controls), dose(mg/Kg po) = 0.5; format: functional
Rattus norvegicus [8] = test: Effects on Sidman Avoidance performance in rats, number of Avoidance performance (% change from control), dose (mg/Kg po) = 8; format: functional
Rattus norvegicus [9] = test: effects on Sidman Avoidance performance in rats, number of Avoidance performance(% change from control), p<0.01,dose(mg/Kg po) =16; format: functional
Rattus norvegicus [10] = test: effects on Sidman Avoidance performance in rats, number of escape failure (absolute change from control),n=10 animals per group, dose(mg/Kg po) =16; format: functional
Rattus norvegicus [11] = test: effects on Sidman Avoidance performance in rats, number of escape failure (absolute change from control), p<0.01, dose(mg/Kg po) =32; format: functional
Mus musculus [12] = test: Compound was evaluated in vivo antagonism of mescaline-induced scratching(% vs controls), dose(mg/Kg ip)=0.25; format: functional
Rattus norvegicus [13] = test: effects on Sidman Avoidance performance in rats, number of escape failure (absolute change from control), dose(mg/Kg po) =8; format: functional
Rattus norvegicus [14] = test: effects on Sidman Avoidance performance in rats, number of shocks (absolute change from control),n=10 animals per group, dose(mg/Kg po) =16; format: functional
Rattus norvegicus [15] = test: effects on Sidman Avoidance performance in rats, number of Avoidance performance(% change from control) p<0.001 dose(mg/Kg po) =32; format: functional
Rattus norvegicus [16] = test: Antagonism of PCP-induced stereotypies (%vs controls), dose(mg/Kg po) = 2; format: functional
Mus musculus [17] = test: Compound was evaluated in vivo antagonism of mescaline-induced scratching(% vs controls), dose(mg/Kg ip)=1; format: functional
Rattus norvegicus [18] = test: Antagonism of SKF 10047 -induced hypermotility (% vs controls) dose(mg/Kg po) = 0.5; format: functional
Rattus norvegicus [19] = test: effects on Sidman Avoidance performance in rats, number of shocks (absolute change from control), p<0.001, dose(mg/Kg po) =32; format: functional
Rattus norvegicus [20] = test: Antagonism of PCP-induced stereotypies (%vs controls), dose(mg/Kg po) = 8; format: functional
Rattus norvegicus [21] = test: Effects on Sidman Avoidance performance in rats, number of shocks (absolute change from control), dose (mg/Kg po) =8; format: functional
Mus musculus [22] = test: Compound was evaluated in vivo antagonism of mescaline-induced scratching(% vs controls), dose(mg/Kg ip)=2; format: functional
Mus musculus [23] = test: Compound was evaluated in vivo antagonism of mescaline-induced scratching(% vs controls), dose(mg/Kg ip)=1, p<0.05
Mus musculus [24] = test: Compound was evaluated in vivo antagonism of mescaline-induced scratching(% vs controls), dose(mg/Kg ip)=4, p<0.001; format: functional
Mus musculus [25] = test: Compound was evaluated in vivo antagonism of mescaline-induced scratching(% vs controls), dose(mg/Kg ip)=2, ns
Mus musculus [26] = test: Compound was evaluated in vivo antagonism of mescaline-induced scratching(% vs controls), dose(mg/Kg ip)=8, p<0.001; format: functional
Rattus norvegicus [27] = test: Antagonism of SKF 10047 -induced hypermotility (% vs controls) dose(mg/Kg po) = 1
Rattus norvegicus [28] = test: effects on Sidman Avoidance performance in rats, number of escape failure (absolute change from control), p<0.01, dose(mg/Kg po) =1; format: functional
Rattus norvegicus [29] = test: effects on Sidman Avoidance performance in rats, number of shocks (absolute change from control), p<0.001, dose(mg/Kg po) =1; format: functional

5-hydroxytryptamine receptor 1B, sequence (P28564 whole entry): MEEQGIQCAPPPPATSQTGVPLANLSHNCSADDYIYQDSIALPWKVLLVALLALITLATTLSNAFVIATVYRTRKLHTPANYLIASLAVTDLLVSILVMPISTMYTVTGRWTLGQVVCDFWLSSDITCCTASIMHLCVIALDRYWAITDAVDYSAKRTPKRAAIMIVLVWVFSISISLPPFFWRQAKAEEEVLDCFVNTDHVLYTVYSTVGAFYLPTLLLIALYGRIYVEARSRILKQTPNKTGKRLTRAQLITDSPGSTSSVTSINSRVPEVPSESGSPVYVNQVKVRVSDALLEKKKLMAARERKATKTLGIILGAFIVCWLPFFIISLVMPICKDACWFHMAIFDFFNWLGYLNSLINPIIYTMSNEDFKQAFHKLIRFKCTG
5-hydroxytryptamine receptor 2A, sequence (Q75Z89 whole entry): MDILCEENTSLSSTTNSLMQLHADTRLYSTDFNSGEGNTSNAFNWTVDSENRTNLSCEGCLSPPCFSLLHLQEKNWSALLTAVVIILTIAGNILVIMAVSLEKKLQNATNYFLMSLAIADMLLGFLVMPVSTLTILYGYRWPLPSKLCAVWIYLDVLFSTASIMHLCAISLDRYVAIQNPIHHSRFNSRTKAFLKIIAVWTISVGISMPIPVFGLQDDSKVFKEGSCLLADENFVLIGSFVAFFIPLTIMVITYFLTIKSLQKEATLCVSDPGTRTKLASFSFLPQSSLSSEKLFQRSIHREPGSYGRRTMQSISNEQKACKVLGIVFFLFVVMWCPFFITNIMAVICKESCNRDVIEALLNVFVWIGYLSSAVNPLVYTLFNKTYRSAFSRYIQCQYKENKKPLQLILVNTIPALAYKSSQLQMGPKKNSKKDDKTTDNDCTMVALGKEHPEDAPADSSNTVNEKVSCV

Structure (SMILES): COc1ccccc1N1CCN(CCCc2ccc3nc(O)sc3c2)CC1
- Duration of immobility (Mus musculus [1]): 99
- Activity (Mus musculus [2]): 96
- IC50 [3]: 290 nM
- IC50 [4]: 61 nM
- IC50 [5]: 1 nM

Structure (SMILES): COc1ccccc1N1CCN(CCc2ccc3c(c2)sc(=O)n3C)CC1
- Hypermotility (Rattus norvegicus [6]): 71
- Hypermotility (Rattus norvegicus [7]): 12
- Duration of immobility (Mus musculus [1]): 89
- No. of avoidance (Rattus norvegicus [8]): 12
- No. of avoidance (Rattus norvegicus [9]): 38
- No. of escape failure (Rattus norvegicus [10]): 18.5
- No. of escape failure (Rattus norvegicus [11]): 63.6
- Activity (Mus musculus [12]): 92
- No. of escape failure (Rattus norvegicus [13]): 5.8
- No. of shocks (Rattus norvegicus [14]): 23.8
- No. of avoidance (Rattus norvegicus [15]): 78
- IC50 [3]: 500 nM
- IC50 [4]: 300 nM
- Hypermotility (Rattus norvegicus [16]): 2
- Activity (Mus musculus [17]): 100
- Hypermotility (Rattus norvegicus [18]): 39
- No. of shocks (Rattus norvegicus [19]): 87.8
- Hypermotility (Rattus norvegicus [20]): 21
- No. of shocks (Rattus norvegicus [21]): 7.3
- IC50 [5]: 10 nM

Structure (SMILES): COc1ccccc1N1CCN(CCCc2ccc3c(c2)sc(=O)n3C)CC1
- IC50 [3]: 910 nM
- IC50 [4]: 360 nM
- Activity (Mus musculus [22]): 73
- IC50 [5]: 6 nM

Structure (SMILES): COc1ccccc1N1CCN(CCc2ccc3c(c2)OCC(=O)N3C)CC1
- IC50 [3]: 600 nM
- IC50 [4]: 180 nM
- IC50 [5]: 0.5 nM

Structure (SMILES): Cn1c(=O)sc2cc(CCN3CCN(c4cccc(C(F)(F)F)c4)CC3)ccc21
- IC50 [3]: 600 nM
- IC50 [4]: 70 nM
- IC50 [5]: 400 nM

Structure (SMILES): Oc1nc2ccc(CCN3CCN(c4ccccc4)CC3)cc2s1
- IC50 [3]: 40 nM
- IC50 [4]: 300 nM

Structure (SMILES): O=c1[nH]c2ccc(CCN3CCN(c4cccc(C(F)(F)F)c4)CC3)cc2s1
- IC50 [3]: 200 nM
- IC50 [4]: 600 nM
- IC50 [5]: 90 nM

Structure (SMILES): COc1ccccc1N1CCN(CCCCc2ccc3c(c2)OCC(=O)N3C)CC1
- Duration of immobility (Mus musculus [1]): 124
- IC50 [3]: 840 nM
- IC50 [5]: 20 nM
- Activity (Mus musculus [23]): 81

Structure (SMILES): CN1C(=O)COc2cc(CCN3CCN(c4cccc(C(F)(F)F)c4)CC3)ccc21
- IC50 [3]: 620 nM
- IC50 [4]: 460 nM
- IC50 [5]: 85 nM

Structure (SMILES): Cn1c(=O)sc2cc(CCN3CCN(c4ccc(F)cc4)CC3)ccc21
- IC50 [3]: 200 nM
- IC50 [4]: 3000 nM
- IC50 [5]: 30 nM

Structure (SMILES): Cn1c(=O)sc2cc(CCN3CCN(c4ccccc4O)CC3)ccc21
- IC50 [3]: 1100 nM
- IC50 [4]: 31 nM

Structure (SMILES): COc1ccccc1N1CCN(CCc2ccc3nc(O)sc3c2)CC1
- IC50 [3]: 300 nM
- IC50 [4]: 20 nM
- IC50 [5]: 0.6 nM

Structure (SMILES): Cn1c(=O)sc2cc(CCCCN3CCN(c4cccc(C(F)(F)F)c4)CC3)ccc21
- IC50 [3]: 400 nM
- IC50 [4]: 1000 nM
- IC50 [5]: 200 nM

Structure (SMILES): COc1ccccc1N1CCN(CCCCc2ccc3c(c2)sc(=O)n3C)CC1
- Duration of immobility (Mus musculus [1]): 36
- IC50 [3]: 1000 nM
- IC50 [4]: 300 nM
- IC50 [5]: 30 nM

Structure (SMILES): Oc1nc2ccc(CCN3CCN(c4ccccc4O)CC3)cc2s1
- Duration of immobility (Mus musculus [1]): 92
- Activity (Mus musculus [24]): 97
- IC50 [3]: 530 nM
- IC50 [4]: 260 nM
- Activity (Mus musculus [25]): 71

Structure (SMILES): Cn1c(=O)sc2cc(CCN3CCN(c4ccccc4)CC3)ccc21
- IC50 [3]: 70 nM
- IC50 [4]: 200 nM
- IC50 [5]: > 100 nM

Structure (SMILES): CN1C(=O)COc2cc(CCCCN3CCN(c4cccc(C(F)(F)F)c4)CC3)ccc21
- Activity (Mus musculus [26]): 87
- IC50 [3]: 620 nM
- IC50 [4]: 280 nM
- Activity (Mus musculus [25]): 60
- IC50 [5]: 30 nM

Structure (SMILES): O=c1[nH]c2ccc(CCCCN3CCN(c4cccc(C(F)(F)F)c4)CC3)cc2s1
- IC50 [3]: 570 nM
- IC50 [4]: 400 nM
- IC50 [5]: 45 nM

Structure (SMILES): COc1ccccc1N1CCN(CCCCc2ccc3[nH]c(=O)sc3c2)CC1
- IC50 [3]: 150 nM
- IC50 [4]: 200 nM
- IC50 [5]: 0.82 nM

Structure (SMILES): CN1CCN(C2=Nc3cc(Cl)ccc3Nc3ccccc32)CC1 [CLOZAPINE]
- Duration of immobility (Mus musculus [1]): 90
- No. of escape failure (Rattus norvegicus [11]): 53.8
- Activity (Mus musculus [24]): 99
- No. of shocks (Rattus norvegicus [19]): 71.1

Structure (SMILES): O=C(CCCN1CCC(O)(c2ccc(Cl)cc2)CC1)c1ccc(F)cc1 [HALOPERIDOL]
- Duration of immobility (Mus musculus [1]): 65
- Hypermotility (Rattus norvegicus [27]): 94
- No. of escape failure (Rattus norvegicus [28]): 84.6
- No. of shocks (Rattus norvegicus [29]): 99.7
